Experimental findings from US20250163104A1, “MACROCYCLIC IMMUNOMODULATORS” (priority 2021, published 2025) are described below.

The structures appear in SMILES notation. pIC50: −log10 of the molar value. Where a SMILES comes first, the peptide text is derived from it. Bridges are numbered along the chain shown (N, C = ends). [ ]: non-standard residue; d: D form. Bip = N[C@@H](Cc1ccc(-c2ccccc2)cc1)C(=O)O; d(aThr) = C[C@@H](O)[C@@H](N)C(=O)O; Orn = NCCC[C@H](N)C(=O)O; Dab = NCC[C@H](N)C(=O)O

The target in this assay is T1, human PD-1 / PD-L1-Ig binding on Jurkat cell line over-expressing human PD-1 (Jurkat-PD-1) (Homo sapiens, UniProt Q15116).
T1 construct: expressed in transfected cells; host or cells: Jurkat
T1 sequence (Q15116 25-288): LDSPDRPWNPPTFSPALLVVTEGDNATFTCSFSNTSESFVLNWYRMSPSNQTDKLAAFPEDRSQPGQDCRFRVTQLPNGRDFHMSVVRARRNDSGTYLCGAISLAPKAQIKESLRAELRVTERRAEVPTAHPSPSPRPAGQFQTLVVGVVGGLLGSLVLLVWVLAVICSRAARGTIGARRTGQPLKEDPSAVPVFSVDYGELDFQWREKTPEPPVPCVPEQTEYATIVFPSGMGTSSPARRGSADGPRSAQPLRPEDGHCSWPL
Nature of the assay: Jurkat-PD-1 Cell Binding High-Content Screening Assay (CBA). It counts as cell-based. The conditions noted are these: Jurkat-PD-1 cells, PE-labeled PD-L1-Ig 20 nM final; read-out: Jurkat HPD1_PDL1 IC50. On the procedure: Example 3. Jurkat-PD-1 Cell Binding High-Content Screening Assay (CBA)
Jurkat-PD-1 Cell Binding High-Content Screening Assay (CBA). Phycoerythrin (PE) was covalently linked to the Ig epitope tag of human PD-L1-Ig and fluorescently-labeled PD-L1-Ig was used for binding studies with a Jurkat cell line over-expressing human PD-1 (Jurkat-PD-1). Briefly, 8×10^3 Jurkat-hPD-1 cells were seeded into 384 well plates in 20 μl of DMEM supplemented with 10% fetal calf serum. 100 nL of compound was added to cells followed by incubation at 37° C. for 2 h. Then, 5 μl of PE-labeled PD-L1-Ig (20 nM final), diluted in DMEM supplemented with 10% fetal calf serum. After 1 hour incubation, cells were fixed with 4% paraformaldehyde in dPBS containing 10 μg/ml Hoechst 33342 and then washed 3x in 100 μl dPBS. Data was collected and processed using a Cell Insight NXT High Content Imager and associated software.
Regarding `CC(C)C[C@@H]1NC(=O)[C@H](CCCCN)NC(=O)[C@@H](CC(C)C)NC(=O)[C@H](CCCN)NC(=O)[C@H](CCCNC(=N)N)NC(=O)[C@H](Cc2ccc(-c3ccccc3)cc2)NC(=O)[C@H](C(C)C)NC(=O)[C@H](Cc2c[nH]c3ccccc23)NC(=O)[C@H](CC(=O)O)NC(=O)[C@H](Cc2ccc(O)cc2)NC(=O)[C@H](CC(N)=O)NC(=O)CSC[C@@H](C(=O)N[C@@H](C)C(N)=O)NC(=O)[C@H]([C@@H](C)O)NC(=O)[C@H](C(C)C)NC1=O` [Compound 1030] ({CH2CO}-NYDWV[Bip]R[Orn][dL]KLVTCA-NH2; thioether N-14), the pIC50 was 7.97.

Consider `CC(C)C[C@@H]1NC(=O)[C@H](CCN)NC(=O)[C@@H](CC(C)C)NC(=O)[C@H](Cc2ccc(O)cc2)NC(=O)[C@H](C(C)C)NC(=O)[C@H](Cc2ccc(-c3ccccc3)cc2)NC(=O)[C@@H](C(C)C)NC(=O)[C@H](Cc2c[nH]c3ccccc23)NC(=O)[C@H](CC(=O)O)NC(=O)[C@H](Cc2ccc(O)cc2)NC(=O)[C@H](CC(N)=O)NC(=O)CSC[C@@H](C(=O)N[C@@H](C)C(N)=O)NC(=O)[C@@H]([C@@H](C)O)NC(=O)[C@H](C(C)C)NC1=O` [Compound 1031] ({CH2CO}-NYDW[dV][Bip]VY[dL][Dab]LV[d(aThr)]CA-NH2; thioether N-14), for which the pIC50 was 7.06. In the case of `CC(C)C[C@@H]1NC(=O)[C@H](CCN)NC(=O)[C@@H](CC(C)C)NC(=O)[C@@H](CC(C)C)NC(=O)[C@H](C(C)C)NC(=O)[C@H](Cc2ccc(-c3ccccc3)cc2)NC(=O)[C@H](C(C)C)NC(=O)[C@H](Cc2c[nH]c3ccccc23)NC(=O)[C@H](CC(=O)O)NC(=O)[C@H](Cc2ccc(O)cc2)NC(=O)[C@H](CC(N)=O)NC(=O)CSC[C@@H](C(=O)N[C@@H](C)C(N)=O)NC(=O)[C@H]([C@@H](C)O)NC(=O)[C@H](C(C)C)NC1=O` [Compound 1032] ({CH2CO}-NYDWV[Bip]V[dL][dL][Dab]LVTCA-NH2; thioether N-14) it was 7.81; in that of `CC(C)C[C@@H]1NC(=O)[C@H](CCN)NC(=O)[C@@H](CC(C)C)NC(=O)[C@H](CC(=O)O)NC(=O)[C@H](C(C)C)NC(=O)[C@H](Cc2ccc(-c3ccccc3)cc2)NC(=O)[C@H](C(C)C)NC(=O)[C@H](Cc2c[nH]c3ccccc23)NC(=O)[C@H](CC(=O)O)NC(=O)[C@H](Cc2ccc(O)cc2)NC(=O)[C@H](CC(N)=O)NC(=O)CSC[C@@H](C(=O)N[C@@H](C)C(N)=O)NC(=O)[C@H]([C@@H](C)O)NC(=O)[C@H](C(C)C)NC1=O` [Compound 1033] ({CH2CO}-NYDWV[Bip]VD[dL][Dab]LVTCA-NH2; thioether N-14), 7.53; in that of `CC(C)C[C@@H]1NC(=O)[C@H](CCN)NC(=O)[C@@H](CC(C)C)NC(=O)[C@H](C(C)C)NC(=O)[C@H](C(C)C)NC(=O)[C@H](Cc2ccc(-c3ccccc3)cc2)NC(=O)[C@H](C(C)C)NC(=O)[C@H](Cc2c[nH]c3ccccc23)NC(=O)[C@H](CC(=O)O)NC(=O)[C@H](Cc2ccc(O)cc2)NC(=O)[C@H](CC(N)=O)NC(=O)CSC[C@@H](C(=O)N[C@@H](C)C(N)=O)NC(=O)[C@H]([C@@H](C)O)NC(=O)[C@H](C(C)C)NC1=O` [Compound 1034] ({CH2CO}-NYDWV[Bip]VV[dL][Dab]LVTCA-NH2; thioether N-14), 7.00. Take `CC(C)C[C@@H]1NC(=O)[C@H](CCN)NC(=O)[C@@H](CC(C)C)NC(=O)[C@H](CC(N)=O)NC(=O)[C@H](C(C)C)NC(=O)[C@H](Cc2ccc(-c3ccccc3)cc2)NC(=O)[C@H](C(C)C)NC(=O)[C@H](Cc2c[nH]c3ccccc23)NC(=O)[C@H](CC(=O)O)NC(=O)[C@H](Cc2ccc(O)cc2)NC(=O)[C@H](CC(N)=O)NC(=O)CSC[C@@H](C(=O)N[C@@H](C)C(N)=O)NC(=O)[C@H]([C@@H](C)O)NC(=O)[C@H](C(C)C)NC1=O` [Compound 1036] ({CH2CO}-NYDWV[Bip]VN[dL][Dab]LVTCA-NH2; thioether N-14): the pIC50 was 7.58.
